# Experimental data published in PubChem BioAssay (NCI).
#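 Cultured in 96-well plates, cells were exposed to test compound for 48 hours across five concentrations. Abbreviation: GI50, concentration required for 50% inhibition of growth. Definition used: TGI = concentration required for complete inhibition of growth.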
# Tests used:
# Assay in all cases: inhibition of tumour cell growth, NCI panel, 48 h
# [1] = system: ACHN renal
# [2] = system: SNB-19 CNS
# [3] = system: U251 CNS
# [4] = system: MALME-3M melanoma
# [5] = system: HCT-116 colon
# [6] = system: CCRF-CEM leukemia
# [7] = system: HS 578T breast
# [8] = system: SF-539 CNS
# [9] = system: KM12 colon
# [10] = system: K-562 leukemia
# [11] = system: MOLT-4 leukemia
# [12] = system: SW-620 colon
# [13] = system: RPMI-8226 leukemia
# [14] = system: SN12C renal
# [15] = system: OVCAR-4 ovarian
# [16] = system: HL-60(TB) leukemia
# [17] = system: HCT-15 colon
# [18] = system: SF-295 CNS
# [19] = system: LOX IMVI melanoma
# [20] = system: COLO 205 colon
# [21] = system: SK-MEL-5 melanoma
# [22] = system: BT-549 breast
# [23] = system: NCI-H460 lung
# [24] = system: SK-OV-3 ovarian
# [25] = system: A549 NSCLC
# [26] = system: SNB-75 CNS
# [27] = system: MCF7 breast
# [28] = system: OVCAR-8 ovarian
# [29] = system: TK-10 renal
# [30] = system: NCI-H226 lung
# [31] = system: A498 renal
# [32] = system: UACC-257 melanoma
# [33] = system: HOP-92 NSCLC
# [34] = system: HT29 colon
# [35] = system: SR leukemia
# [36] = system: SK-MEL-2 melanoma
# [37] = system: HOP-62 NSCLC
# [38] = system: T-47D breast
# [39] = system: DU-145 prostate
# [40] = system: NCI/ADR-RES ovarian
# [41] = system: CAKI-1 renal
# [42] = system: 786-0 renal
# [43] = system: NCI-H522 lung
# [44] = system: HCC-2998 colon
# [45] = system: RXF 393 renal
# [46] = system: EKVX NSCLC
# [47] = system: UACC-62 melanoma
# [48] = system: OVCAR-5 ovarian
# [49] = system: SK-MEL-28 melanoma
# [50] = system: SF-268 CNS
# [51] = system: IGROV1 ovarian
# [52] = system: OVCAR-3 ovarian
# [53] = system: MDA-MB-435
# [54] = system: MDA-MB-231 breast
# [55] = system: M14 melanoma
# [56] = system: UO-31 renal
# [57] = system: PC-3 prostate
# [58] = system: NCI-H23 lung
smiles,measurement,setting,value
Cc1cccc2sc(/N=C(\N)C(Br)Br)nc12,GI50,[1],1070 nM
same,TGI,[1],3860 nM
same,GI50,[2],3230 nM
same,TGI,[2],15100 nM
same,GI50,[3],1310 nM
same,TGI,[3],3300 nM
same,GI50,[4],1640 nM
same,TGI,[4],3660 nM
same,GI50,[5],520 nM
same,TGI,[5],1990 nM
same,GI50,[6],2670 nM
same,TGI,[6],8120 nM
same,GI50,[7],2320 nM
same,TGI,[7],9790 nM
same,GI50,[8],1420 nM
same,TGI,[8],3340 nM
same,GI50,[9],1990 nM
same,TGI,[9],11800 nM
same,GI50,[10],1070 nM
same,TGI,[10],12800 nM
same,GI50,[11],1720 nM
same,TGI,[11],11500 nM
same,GI50,[12],659 nM
same,TGI,[12],2410 nM
same,GI50,[13],2120 nM
same,TGI,[13],9510 nM
same,GI50,[14],1680 nM
same,TGI,[14],3920 nM
same,GI50,[15],2000 nM
same,TGI,[15],6500 nM
same,GI50,[16],1830 nM
same,TGI,[16],7130 nM
same,GI50,[17],1250 nM
same,TGI,[17],6810 nM
same,GI50,[18],3650 nM
same,TGI,[18],15500 nM
same,GI50,[19],158 nM
same,TGI,[19],345 nM
same,GI50,[20],1250 nM
same,TGI,[20],2930 nM
same,GI50,[21],3030 nM
same,TGI,[21],9420 nM
same,GI50,[22],1660 nM
same,TGI,[22],3550 nM
same,GI50,[23],654 nM
same,TGI,[23],2590 nM
same,GI50,[24],4000 nM
same,TGI,[24],16000 nM
same,GI50,[25],2730 nM
same,TGI,[25],10400 nM
same,GI50,[26],2010 nM
same,TGI,[26],10600 nM
same,GI50,[27],819 nM
same,TGI,[27],3800 nM
same,GI50,[28],2110 nM
same,TGI,[28],7270 nM
same,GI50,[29],4300 nM
same,TGI,[29],15500 nM
same,GI50,[30],1820 nM
same,TGI,[30],4130 nM
same,GI50,[31],12500 nM
same,TGI,[31],25100 nM
same,GI50,[32],2900 nM
same,TGI,[32],11500 nM
same,GI50,[33],1540 nM
same,TGI,[33],6390 nM
same,GI50,[34],1180 nM
same,TGI,[34],3530 nM
same,GI50,[35],2010 nM
same,TGI,[35],7450 nM
same,GI50,[36],2450 nM
same,TGI,[36],7500 nM
same,GI50,[37],2700 nM
same,TGI,[37],12100 nM
same,GI50,[38],2540 nM
same,TGI,[38],12800 nM
same,GI50,[39],1940 nM
same,TGI,[39],11100 nM
same,GI50,[40],1670 nM
same,TGI,[40],7100 nM
same,GI50,[41],820 nM
same,TGI,[41],2100 nM
same,GI50,[42],1810 nM
same,TGI,[42],4140 nM
same,GI50,[43],1540 nM
same,TGI,[43],3080 nM
same,GI50,[44],1590 nM
same,TGI,[44],3450 nM
same,GI50,[45],1320 nM
same,TGI,[45],3320 nM
same,GI50,[46],3610 nM
same,TGI,[46],14200 nM
same,GI50,[47],2540 nM
same,TGI,[47],12000 nM
same,GI50,[48],2520 nM
same,TGI,[48],7500 nM
same,GI50,[49],1910 nM
same,TGI,[49],5260 nM
same,GI50,[50],2240 nM
same,TGI,[50],13100 nM
same,GI50,[51],1620 nM
same,TGI,[51],3750 nM
same,GI50,[52],1680 nM
same,TGI,[52],4380 nM
same,GI50,[53],1330 nM
same,TGI,[53],2920 nM
same,GI50,[54],2110 nM
same,TGI,[54],7820 nM
same,GI50,[55],1390 nM
same,TGI,[55],3710 nM
same,GI50,[56],1230 nM
same,TGI,[56],7530 nM
same,GI50,[57],1930 nM
same,TGI,[57],6800 nM
CCOC(=O)c1c(NC(=O)c2ccc(C(F)(F)F)cc2)sc2c(CN3CCN(C)CC3)c(O)ccc12,GI50,[1],1810 nM
same,TGI,[1],3210 nM
same,GI50,[2],1790 nM
same,TGI,[2],3480 nM
same,GI50,[3],1790 nM
same,TGI,[3],3370 nM
same,GI50,[4],1990 nM
same,TGI,[4],4280 nM
same,GI50,[5],1680 nM
same,TGI,[5],3340 nM
same,GI50,[6],1950 nM
same,TGI,[6],4770 nM
same,GI50,[7],1990 nM
same,TGI,[7],4520 nM
same,GI50,[8],1630 nM
same,TGI,[8],3020 nM
same,GI50,[9],1790 nM
same,TGI,[9],3340 nM
same,GI50,[10],1130 nM
same,TGI,[10],5860 nM
same,GI50,[11],1740 nM
same,TGI,[11],4000 nM
same,GI50,[12],1710 nM
same,TGI,[12],3200 nM
same,GI50,[13],1730 nM
same,TGI,[13],3950 nM
same,GI50,[14],1760 nM
same,TGI,[14],3440 nM
same,GI50,[15],2050 nM
same,TGI,[15],4430 nM
same,GI50,[16],1780 nM
same,TGI,[16],3940 nM
same,GI50,[17],1740 nM
same,TGI,[17],3500 nM
same,GI50,[18],1940 nM
same,TGI,[18],3980 nM
same,GI50,[19],1780 nM
same,TGI,[19],3190 nM
same,GI50,[20],1870 nM
same,TGI,[20],3760 nM
same,GI50,[21],3030 nM
same,TGI,[21],10100 nM
same,GI50,[22],1850 nM
same,TGI,[22],4150 nM
same,GI50,[23],1770 nM
same,TGI,[23],3380 nM
same,GI50,[24],1930 nM
same,TGI,[24],4210 nM
same,GI50,[25],1850 nM
same,TGI,[25],3850 nM
same,GI50,[26],2050 nM
same,TGI,[26],4920 nM
same,GI50,[27],1820 nM
same,TGI,[27],3650 nM
same,GI50,[28],2140 nM
same,TGI,[28],4770 nM
same,GI50,[29],1620 nM
same,TGI,[29],3160 nM
same,GI50,[30],1950 nM
same,TGI,[30],4070 nM
same,GI50,[31],1630 nM
same,TGI,[31],3300 nM
same,GI50,[32],2120 nM
same,TGI,[32],4980 nM
same,GI50,[33],1360 nM
same,TGI,[33],3110 nM
same,GI50,[34],1830 nM
same,TGI,[34],3680 nM
same,GI50,[35],1110 nM
same,TGI,[35],3420 nM
same,GI50,[36],2210 nM
same,TGI,[36],5000 nM
same,GI50,[37],1820 nM
same,TGI,[37],3990 nM
same,GI50,[38],1840 nM
same,TGI,[38],4540 nM
same,GI50,[39],1970 nM
same,TGI,[39],3790 nM
same,GI50,[40],1920 nM
same,TGI,[40],3830 nM
same,GI50,[41],1650 nM
same,TGI,[41],3160 nM
same,GI50,[42],1550 nM
same,TGI,[42],3320 nM
same,GI50,[43],2190 nM
same,TGI,[43],5560 nM
same,GI50,[44],1710 nM
same,TGI,[44],3230 nM
same,GI50,[45],1590 nM
same,TGI,[45],3810 nM
same,GI50,[46],2620 nM
same,TGI,[46],8150 nM
same,GI50,[47],1790 nM
same,TGI,[47],3590 nM
same,GI50,[48],1770 nM
same,TGI,[48],3190 nM
same,GI50,[49],1730 nM
same,TGI,[49],3160 nM
same,GI50,[58],2110 nM
same,TGI,[58],4730 nM
same,GI50,[50],1870 nM
same,TGI,[50],4010 nM
same,GI50,[51],1790 nM
same,TGI,[51],3470 nM
same,GI50,[52],1750 nM
same,TGI,[52],3170 nM
same,GI50,[53],1730 nM
same,TGI,[53],3120 nM
same,GI50,[54],1860 nM
same,TGI,[54],3560 nM
same,GI50,[56],1510 nM
same,TGI,[56],2950 nM
same,GI50,[57],1690 nM
same,TGI,[57],3220 nM
